Test results: patent publication EP3046573B1, “AMYLIN ANALOGUES” (Zealand Pharma A/S, priority 2013, dated 2015)
Where two headings read alike, the source gives them in different places. Numbered stars: 1 amine (or outer) side, 2 acyl side, 3 side chain; on linkers, the order of the positions; unused ones are H or OH. Bridge positions count the residues as written; N and C are the ends. Square brackets hold non-standard residues; d marks the D form. Peptide text beside a SMILES is read from it. * marks the point of attachment. C20 diacid = O=C(O)CCCCCCCCCCCCCCCCCCC(=O)*; γGlu = O=C(O)[C@H](CCC(=O)[*:2])N[*:1]; NMeI = CC[C@H](C)[C@H](NC)C(=O)O; Sar = CNCC(=O)O

Assays:
[1] = biological target: T1, human calcitonin receptor (hCTR2) (Homo sapiens, UniProt P30988); experiment: hCTR2 assay: induction of cAMP (AlphaScreen cAMP Assay kit) in COS7 cells expressing hCTR2; format: cell-based
T1 construct: expressed in transfected cells
T1 sequence (P30988 25-474): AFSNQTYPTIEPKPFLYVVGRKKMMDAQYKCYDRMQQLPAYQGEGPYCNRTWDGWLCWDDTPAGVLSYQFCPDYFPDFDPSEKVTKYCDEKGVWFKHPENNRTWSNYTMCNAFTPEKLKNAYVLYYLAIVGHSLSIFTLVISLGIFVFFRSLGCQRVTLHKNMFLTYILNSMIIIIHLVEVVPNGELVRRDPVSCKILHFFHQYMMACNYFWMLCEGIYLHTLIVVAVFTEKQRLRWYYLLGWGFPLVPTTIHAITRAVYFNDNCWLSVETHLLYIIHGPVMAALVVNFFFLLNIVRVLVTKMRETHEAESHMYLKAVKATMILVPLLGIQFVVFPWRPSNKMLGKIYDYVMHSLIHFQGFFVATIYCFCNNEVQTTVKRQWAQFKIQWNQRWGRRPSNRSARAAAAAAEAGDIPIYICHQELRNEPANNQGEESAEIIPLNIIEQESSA
How it was run: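 Functional agonism is measured as cAMP accumulation in a COS7 line stably transfected with hCTR2, lacking endogenous RAMPs. Peptides act for 15 min at 37° C with IBMX present, and curves are fitted with a 4-parameter logistic model.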

[2] = Solubility assessment (turbidity absorbance at 325 nm); format: physicochemical; conditions: stock 2 mg/ml diluted 1:1, ambient temperature (typically 25°C), n=1; for Solubility, Acetate buffer pH 4: 100 mM acetate buffer pH 4.0; for Solubility, Acetate buffer pH 5: 100 mM acetate buffer pH 5.0; for Solubility, Histidine buffer pH 6: 100 mM histidine buffer pH 6.0; for Solubility, Histidine buffer pH 7: 100 mM histidine buffer pH 7.0; for Solubility, Phosphate buffer pH 6: 100 mM phosphate buffer pH 6.0; for Solubility, Phosphate buffer pH 7: 100 mM phosphate buffer pH 7.0; for Solubility, Phosphate buffer pH 7.5: 100 mM phosphate buffer pH7.5
How it was run: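 Stock 2 mg/ml peptide, H2O/HCl pH 2.5; 1:1 into 100 mM buffers: acetate pH 4.0/5.0, His pH 6.0/7.0, phosphate pH 6.0/7.0/7.5. A280 + A325, ~25°C, n=1. Soluble ≥ 1 mg/ml if A325 ≤ 0.02.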

EC50 ([1]; cAMP induction in COS7 cells expressing hCTR2, average of a minimum of 3 determinations, read-out: hCTR2 EC50) [nM]	Compound	EC50 [1] [nM]	Solubility, Acetate buffer pH 4 [2]	Solubility, Acetate buffer pH 5 [2]	Solubility, Histidine buffer pH 6 [2]	Solubility, Histidine buffer pH 7 [2]	Solubility, Phosphate buffer pH 6 [2]	Solubility, Phosphate buffer pH 7 [2]	Solubility, Phosphate buffer pH 7.5 [2]
	CC[C@H](C)[C@@H](C(=O)N[C@@H](CC(C)C)C(=O)N[C@H](CO)C(=O)N[C@@H](CO)C(=O)N[C@H](C(=O)N[C@@H](CC(N)=O)C(=O)N[C@H](C(=O)NCC(=O)N[C@@H](CO)C(=O)N[C@@H](CC(N)=O)C(=O)N[C@H](C(=O)N1CCC[C@H]1C(N)=O)[C@@H](C)O)C(C)C)[C@@H](C)O)N(C)C(=O)[C@H](C)NC(=O)CN(C)C(=O)[C@@H](Cc1ccccc1)NC(=O)[C@H](CC(N)=O)NC(=O)[C@H](CC(N)=O)NC(=O)[C@H](CO)NC(=O)[C@H](CO)NC(=O)[C@H](Cc1c[nH]cn1)NC(=O)[C@H](Cc1c[nH]cn1)NC(=O)[C@H](CC(C)C)NC(=O)[C@H](Cc1ccccc1)NC(=O)[C@H](CCC(=O)O)NC(=O)[C@H](C)NC(=O)[C@H](CC(C)C)NC(=O)[C@H](CCCNC(=N)N)NC(=O)[C@H](CCC(N)=O)NC(=O)[C@@H](NC(=O)[C@H](C)NC(=O)[C@@H]1CSSC[C@H](NC(=O)[C@H](CCCNC(=N)N)NC(=O)CC[C@H](NC(=O)CCCCCCCCCCCCCCCCCCC(=O)O)C(=O)O)C(=O)N[C@@H](CC(N)=O)C(=O)N[C@@H]([C@@H](C)O)C(=O)N[C@@H](C)C(=O)N[C@@H]([C@@H](C)O)C(=O)N1)[C@@H](C)O [Compound 59, [19CD]-isoGlu-RC()NTATC()ATQRLAEFLHHSSNN-DPhe-Gly(Me)-A-Ile(Me)-L-DSer-STNVGSNTP-NH2] ({C20 diacid-γGlu}-RCNTATCATQRLAEFLHHSSNN[dF][Sar]A[NMeI]L[dS]STNVGSNTP-NH2; disulfide 2-7)	0.14	SS (SS indicates solubility ≥ 1mg/ml)	SS (SS indicates solubility ≥ 1mg/ml)	SS (SS indicates solubility ≥ 1mg/ml)	SS (SS indicates solubility ≥ 1mg/ml)	SS (SS indicates solubility ≥ 1mg/ml)	II (II indicates solubility ≤ 1 mg/ml)	SS (SS indicates solubility ≥ 1mg/ml)
0.12	CC[C@H](C)[C@@H](C(=O)N[C@@H](CC(C)C)C(=O)N[C@H](CO)C(=O)N[C@@H](CO)C(=O)N[C@H](C(=O)N[C@@H](CC(N)=O)C(=O)N[C@H](C(=O)NCC(=O)N[C@@H](CO)C(=O)N[C@@H](CC(N)=O)C(=O)N[C@H](C(=O)N1CCC[C@H]1C(N)=O)[C@@H](C)O)C(C)C)[C@@H](C)O)N(C)C(=O)CN(C)C(=O)[C@@H](Cc1ccccc1)NC(=O)[C@H](CC(N)=O)NC(=O)[C@H](CC(N)=O)NC(=O)[C@H](CO)NC(=O)[C@H](CO)NC(=O)[C@H](Cc1c[nH]cn1)NC(=O)[C@H](Cc1c[nH]cn1)NC(=O)[C@H](CC(C)C)NC(=O)[C@H](Cc1ccccc1)NC(=O)[C@H](CCC(=O)O)NC(=O)[C@H](C)NC(=O)[C@H](CC(C)C)NC(=O)[C@H](CCCNC(=N)N)NC(=O)[C@H](CCC(N)=O)NC(=O)[C@@H](NC(=O)[C@H](C)NC(=O)[C@@H]1CSSC[C@H](NC(=O)[C@H](CCCNC(=N)N)NC(=O)CC[C@H](NC(=O)CCCCCCCCCCCCCCCCCCC(=O)O)C(=O)O)C(=O)N[C@@H](CC(N)=O)C(=O)N[C@@H]([C@@H](C)O)C(=O)N[C@@H](C)C(=O)N[C@@H]([C@@H](C)O)C(=O)N1)[C@@H](C)O [Compound 60, [19CD]-isoGlu-RC()NTATC()ATQRLAEFLHHSSNN-DPhe-Gly(Me)-Ile(Me)-L-DSer-STNVGSNTP-NH2] ({C20 diacid-γGlu}-RCNTATCATQRLAEFLHHSSNN[dF][Sar][NMeI]L[dS]STNVGSNTP-NH2; disulfide 2-7)		SS (SS indicates solubility ≥ 1mg/ml)	SS (SS indicates solubility ≥ 1mg/ml)	SS (SS indicates solubility ≥ 1mg/ml)	SS (SS indicates solubility ≥ 1mg/ml)	SS (SS indicates solubility ≥ 1mg/ml)	II (II indicates solubility ≤ 1 mg/ml)	SS (SS indicates solubility ≥ 1mg/ml)
